From the kinase profiling compilation of Christmann-Franck et al. (2016)

Tests used:
Assay in all cases: radiometric filter-binding kinase assay, Kinase HotSpot
Details in all cases: compound 0.5 µM; ATP 10 µM
RPS6KA1 KD1 KD2 (human) = RPS6KA1 KD1 KD2 (human) (UniProt Q15418)
PRKACA (human) = PRKACA (human) (UniProt P17612)
TAOK1 (human) = TAOK1 (human) (UniProt Q7L7X3)
PRKD1 (human) = PRKD1 (human) (UniProt Q15139)
MAPK14 (human) = MAPK14 (human) (UniProt Q16539)
NUAK1 (human) = NUAK1 (human) (UniProt O60285)
NEK11 (human) = NEK11 (human) (UniProt Q8NG66)
CDK5 CDK5R1 p35 (human) = CDK5 CDK5R1 p35 (human) (UniProt Q00535+Q15078)
ZAP70 (human) = ZAP70 (human) (UniProt P43403)
TSSK1B (human) = TSSK1B (human) (UniProt Q9BXA7)
TSSK1B (human), sequence (Q9BXA7 whole entry, looked up): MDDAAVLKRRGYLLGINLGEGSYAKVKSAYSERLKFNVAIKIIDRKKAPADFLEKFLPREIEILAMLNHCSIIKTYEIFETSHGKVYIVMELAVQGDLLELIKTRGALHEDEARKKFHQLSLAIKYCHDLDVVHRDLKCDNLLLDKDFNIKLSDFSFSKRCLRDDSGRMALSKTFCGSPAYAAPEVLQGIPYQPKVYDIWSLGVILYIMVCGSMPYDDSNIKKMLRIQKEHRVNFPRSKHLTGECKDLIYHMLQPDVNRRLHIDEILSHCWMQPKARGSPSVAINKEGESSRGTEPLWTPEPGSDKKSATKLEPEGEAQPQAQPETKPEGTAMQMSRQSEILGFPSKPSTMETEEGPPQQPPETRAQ

CSNK2A2 (human) = CSNK2A2 (human) (UniProt P19784)
CSNK2A2 (human), sequence (P19784 whole entry, looked up): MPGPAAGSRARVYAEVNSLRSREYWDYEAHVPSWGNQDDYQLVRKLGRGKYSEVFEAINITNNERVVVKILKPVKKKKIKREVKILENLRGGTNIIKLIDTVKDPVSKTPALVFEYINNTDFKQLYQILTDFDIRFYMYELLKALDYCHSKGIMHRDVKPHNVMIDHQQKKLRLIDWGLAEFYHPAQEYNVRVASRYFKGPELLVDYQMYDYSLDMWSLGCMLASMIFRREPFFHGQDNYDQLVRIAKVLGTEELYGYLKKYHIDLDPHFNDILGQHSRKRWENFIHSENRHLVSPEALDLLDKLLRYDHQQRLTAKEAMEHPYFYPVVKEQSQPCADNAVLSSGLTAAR

FLT1 (human) = FLT1 (human) (UniProt P17948)
FLT1 (human), sequence (P17948 whole entry, looked up): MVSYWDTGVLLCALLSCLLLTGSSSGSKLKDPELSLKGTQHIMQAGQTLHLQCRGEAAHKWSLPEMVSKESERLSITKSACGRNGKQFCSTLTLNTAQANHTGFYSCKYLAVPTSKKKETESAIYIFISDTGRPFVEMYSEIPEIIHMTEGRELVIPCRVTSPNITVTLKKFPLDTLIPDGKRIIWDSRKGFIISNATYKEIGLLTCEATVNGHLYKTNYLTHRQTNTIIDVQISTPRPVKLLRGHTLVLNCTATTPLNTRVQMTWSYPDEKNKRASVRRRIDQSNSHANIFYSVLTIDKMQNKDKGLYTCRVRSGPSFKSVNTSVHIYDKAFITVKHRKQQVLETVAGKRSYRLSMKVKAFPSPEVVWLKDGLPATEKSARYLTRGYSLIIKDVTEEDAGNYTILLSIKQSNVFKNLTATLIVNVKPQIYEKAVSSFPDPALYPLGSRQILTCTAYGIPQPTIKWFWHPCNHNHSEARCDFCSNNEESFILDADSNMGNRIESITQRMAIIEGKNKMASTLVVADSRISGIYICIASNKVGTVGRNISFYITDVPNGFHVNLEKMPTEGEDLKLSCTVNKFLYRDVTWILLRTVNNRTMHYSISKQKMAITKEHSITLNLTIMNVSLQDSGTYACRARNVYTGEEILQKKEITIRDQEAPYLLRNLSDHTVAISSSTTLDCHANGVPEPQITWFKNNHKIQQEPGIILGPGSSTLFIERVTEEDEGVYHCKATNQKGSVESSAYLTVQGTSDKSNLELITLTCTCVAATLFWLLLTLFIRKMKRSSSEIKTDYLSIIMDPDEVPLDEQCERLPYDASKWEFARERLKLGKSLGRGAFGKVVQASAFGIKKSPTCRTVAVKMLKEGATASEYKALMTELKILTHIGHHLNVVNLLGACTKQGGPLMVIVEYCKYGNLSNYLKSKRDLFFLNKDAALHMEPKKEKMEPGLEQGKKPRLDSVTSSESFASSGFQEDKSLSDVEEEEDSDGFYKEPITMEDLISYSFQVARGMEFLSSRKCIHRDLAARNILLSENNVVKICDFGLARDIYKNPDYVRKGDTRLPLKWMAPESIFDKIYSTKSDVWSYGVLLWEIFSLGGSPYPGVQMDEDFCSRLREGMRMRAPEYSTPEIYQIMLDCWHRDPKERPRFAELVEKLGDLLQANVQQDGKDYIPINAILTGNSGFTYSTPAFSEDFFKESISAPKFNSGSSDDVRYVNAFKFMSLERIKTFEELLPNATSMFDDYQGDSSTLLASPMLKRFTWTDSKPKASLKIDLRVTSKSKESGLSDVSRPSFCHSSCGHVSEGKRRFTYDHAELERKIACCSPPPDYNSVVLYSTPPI

PAK7 (human) = PAK7 (human) (UniProt Q9P286)
TNK2 (human) = TNK2 (human) (UniProt Q07912)
ABL2 (human) = ABL2 (human) (UniProt P42684)
CAMKK1 (human) = CAMKK1 (human) (UniProt Q8N5S9)
CDK1 CCNB1 (human) = CDK1 CCNB1 (human) (UniProt P06493+P14635)
IGF1R (human) = IGF1R (human) (UniProt P08069)
MAP4K2 (human) = MAP4K2 (human) (UniProt Q12851)
LIMK1 (human) = LIMK1 (human) (UniProt P53667)
RPS6KB1 (human) = RPS6KB1 (human) (UniProt P23443)
DYRK1A (human) = DYRK1A (human) (UniProt Q13627)
STK10 (human) = STK10 (human) (UniProt O94804)
CLK4 (human) = CLK4 (human) (UniProt Q9HAZ1)
PASK (human) = PASK (human) (UniProt Q96RG2)
MARK3 (human) = MARK3 (human) (UniProt P27448)
RAF1 (human) = RAF1 (human) (UniProt P04049)
RPS6KA6 KD1 KD2 (human) = RPS6KA6 KD1 KD2 (human) (UniProt Q9UK32)
EPHB1 (human) = EPHB1 (human) (UniProt P54762)
PKN1 (human) = PKN1 (human) (UniProt Q16512)
ABL1 (human) = ABL1 (human) (UniProt P00519)
MAPK10 (human) = MAPK10 (human) (UniProt P53779)
LRRK2 (human) = LRRK2 (human) (UniProt Q5S007)
LRRK2 (human), sequence (Q5S007 whole entry, looked up): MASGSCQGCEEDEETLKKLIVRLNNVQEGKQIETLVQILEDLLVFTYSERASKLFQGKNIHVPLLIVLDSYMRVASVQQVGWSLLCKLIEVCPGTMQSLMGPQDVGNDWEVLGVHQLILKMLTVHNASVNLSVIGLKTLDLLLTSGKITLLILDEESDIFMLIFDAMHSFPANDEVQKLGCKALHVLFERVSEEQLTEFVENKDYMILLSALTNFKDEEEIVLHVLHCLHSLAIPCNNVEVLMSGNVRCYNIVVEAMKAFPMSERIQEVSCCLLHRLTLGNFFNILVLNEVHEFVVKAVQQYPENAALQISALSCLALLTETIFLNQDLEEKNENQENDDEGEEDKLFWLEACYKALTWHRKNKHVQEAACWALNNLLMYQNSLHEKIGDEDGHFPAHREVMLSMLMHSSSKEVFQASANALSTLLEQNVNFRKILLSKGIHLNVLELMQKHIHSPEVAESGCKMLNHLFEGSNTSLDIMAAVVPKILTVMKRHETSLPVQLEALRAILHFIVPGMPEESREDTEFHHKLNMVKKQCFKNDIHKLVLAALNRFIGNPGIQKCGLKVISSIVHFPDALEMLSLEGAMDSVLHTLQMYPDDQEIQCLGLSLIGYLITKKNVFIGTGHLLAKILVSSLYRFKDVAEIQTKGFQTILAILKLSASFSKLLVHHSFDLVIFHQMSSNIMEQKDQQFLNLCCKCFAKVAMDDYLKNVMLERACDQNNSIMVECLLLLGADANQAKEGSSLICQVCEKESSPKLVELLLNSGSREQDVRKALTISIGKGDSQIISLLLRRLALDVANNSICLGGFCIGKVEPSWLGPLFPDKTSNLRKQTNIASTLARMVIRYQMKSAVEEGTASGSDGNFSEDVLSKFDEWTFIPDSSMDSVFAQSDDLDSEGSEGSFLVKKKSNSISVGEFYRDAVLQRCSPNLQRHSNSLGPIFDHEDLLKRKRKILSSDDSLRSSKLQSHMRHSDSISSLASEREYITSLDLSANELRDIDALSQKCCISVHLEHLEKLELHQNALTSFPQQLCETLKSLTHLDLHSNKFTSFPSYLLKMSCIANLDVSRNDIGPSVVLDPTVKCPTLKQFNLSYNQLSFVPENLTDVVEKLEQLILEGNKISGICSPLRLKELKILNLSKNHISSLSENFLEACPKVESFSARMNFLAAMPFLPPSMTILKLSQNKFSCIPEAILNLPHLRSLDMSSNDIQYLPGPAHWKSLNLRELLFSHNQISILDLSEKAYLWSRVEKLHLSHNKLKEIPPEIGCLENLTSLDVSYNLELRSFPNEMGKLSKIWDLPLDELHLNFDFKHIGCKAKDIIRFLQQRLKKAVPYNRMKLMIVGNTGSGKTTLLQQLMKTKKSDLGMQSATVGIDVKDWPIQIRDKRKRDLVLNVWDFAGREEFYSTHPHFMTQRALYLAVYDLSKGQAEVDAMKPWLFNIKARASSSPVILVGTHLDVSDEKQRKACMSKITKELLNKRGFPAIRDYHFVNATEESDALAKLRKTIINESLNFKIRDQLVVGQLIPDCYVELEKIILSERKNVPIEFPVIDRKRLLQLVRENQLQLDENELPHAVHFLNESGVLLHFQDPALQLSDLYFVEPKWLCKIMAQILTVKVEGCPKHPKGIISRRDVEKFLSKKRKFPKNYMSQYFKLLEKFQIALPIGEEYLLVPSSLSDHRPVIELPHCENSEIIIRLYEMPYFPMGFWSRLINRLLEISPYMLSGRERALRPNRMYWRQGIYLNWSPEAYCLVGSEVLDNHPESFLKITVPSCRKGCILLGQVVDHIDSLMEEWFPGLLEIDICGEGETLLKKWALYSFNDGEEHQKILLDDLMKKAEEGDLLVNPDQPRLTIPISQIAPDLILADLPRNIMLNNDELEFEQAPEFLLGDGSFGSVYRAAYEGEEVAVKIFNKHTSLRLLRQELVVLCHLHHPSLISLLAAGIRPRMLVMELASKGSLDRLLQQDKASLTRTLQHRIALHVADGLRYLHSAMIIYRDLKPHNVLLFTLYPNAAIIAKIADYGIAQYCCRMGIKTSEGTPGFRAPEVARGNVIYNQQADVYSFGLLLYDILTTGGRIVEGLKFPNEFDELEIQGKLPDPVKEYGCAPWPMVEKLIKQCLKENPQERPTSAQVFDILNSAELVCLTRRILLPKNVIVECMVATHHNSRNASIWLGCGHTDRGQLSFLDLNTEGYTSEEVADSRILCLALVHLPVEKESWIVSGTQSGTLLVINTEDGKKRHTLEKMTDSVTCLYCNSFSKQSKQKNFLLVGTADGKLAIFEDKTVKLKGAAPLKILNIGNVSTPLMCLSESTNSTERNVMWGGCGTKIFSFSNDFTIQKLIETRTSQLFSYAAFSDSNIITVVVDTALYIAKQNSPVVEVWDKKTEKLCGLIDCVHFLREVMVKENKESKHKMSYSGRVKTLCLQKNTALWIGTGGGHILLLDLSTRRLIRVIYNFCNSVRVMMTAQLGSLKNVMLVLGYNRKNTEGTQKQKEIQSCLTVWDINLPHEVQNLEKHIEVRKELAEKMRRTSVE

TAOK3 (human) = TAOK3 (human) (UniProt Q9H2K8)
INSR (human) = INSR (human) (UniProt P06213)
NTRK2 (human) = NTRK2 (human) (UniProt Q16620)
AKT2 (human) = AKT2 (human) (UniProt P31751)
STK16 (human) = STK16 (human) (UniProt O75716)
FGFR4 (human) = FGFR4 (human) (UniProt P22455)
EPHA7 (human) = EPHA7 (human) (UniProt Q15375)
TXK (human) = TXK (human) (UniProt P42681)
TXK (human), sequence (P42681 whole entry, looked up): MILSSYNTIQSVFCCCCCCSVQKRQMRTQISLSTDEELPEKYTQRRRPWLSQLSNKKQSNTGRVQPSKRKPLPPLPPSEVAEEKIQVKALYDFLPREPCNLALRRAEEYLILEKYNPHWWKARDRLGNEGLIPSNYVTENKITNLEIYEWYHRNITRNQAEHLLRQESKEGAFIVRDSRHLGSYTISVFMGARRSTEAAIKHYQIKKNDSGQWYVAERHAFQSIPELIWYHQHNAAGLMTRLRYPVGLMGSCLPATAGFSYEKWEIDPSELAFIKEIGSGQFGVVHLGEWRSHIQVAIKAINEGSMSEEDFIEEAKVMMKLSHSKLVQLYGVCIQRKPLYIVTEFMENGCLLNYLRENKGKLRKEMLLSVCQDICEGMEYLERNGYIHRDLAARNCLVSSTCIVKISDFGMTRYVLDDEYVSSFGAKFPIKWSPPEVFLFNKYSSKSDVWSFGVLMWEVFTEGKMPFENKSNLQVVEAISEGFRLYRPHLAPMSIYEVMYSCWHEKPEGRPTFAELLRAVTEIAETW

FGFR1 (human) = FGFR1 (human) (UniProt P11362)

COc1cc2ncnc(Nc3ccc(O)c(Br)c3)c2cc1OC
residual activity (RPS6KA1 KD1 KD2 (human)): 78.2% | residual activity (PRKACA (human)): 97.7% | residual activity (TAOK1 (human)): 93.3% | residual activity (PRKD1 (human)): 70.1% | residual activity (MAPK14 (human)): 87.3% | residual activity (NUAK1 (human)): 68.2% | residual activity (NEK11 (human)): 103% | residual activity (CDK5 CDK5R1 p35 (human)): 99.6% | residual activity (ZAP70 (human)): 99.7% | residual activity (TSSK1B (human)): 84.7% | residual activity (CSNK2A2 (human)): 89.2% | residual activity (FLT1 (human)): 83.4% | residual activity (PAK7 (human)): 97.7% | residual activity (TNK2 (human)): 10.5% | residual activity (ABL2 (human)): 58.4% | residual activity (CAMKK1 (human)): 95.8% | residual activity (CDK1 CCNB1 (human)): 81.3% | residual activity (IGF1R (human)): 104% | residual activity (MAP4K2 (human)): 101% | residual activity (LIMK1 (human)): 85.1% | residual activity (RPS6KB1 (human)): 82.1% | residual activity (DYRK1A (human)): 97.8% | residual activity (STK10 (human)): 14.5% | residual activity (CLK4 (human)): 101% | residual activity (PASK (human)): 57.9% | residual activity (MARK3 (human)): 98.8% | residual activity (RAF1 (human)): 92.1% | residual activity (RPS6KA6 KD1 KD2 (human)): 57.8% | residual activity (EPHB1 (human)): 81.4% | residual activity (PKN1 (human)): 95.6% | residual activity (ABL1 (human)): 79.4% | residual activity (MAPK10 (human)): 89% | residual activity (LRRK2 (human)): 82.7% | residual activity (TAOK3 (human)): 98.8% | residual activity (INSR (human)): 92.4% | residual activity (NTRK2 (human)): 94.8% | residual activity (AKT2 (human)): 98.7% | residual activity (STK16 (human)): 104% | residual activity (FGFR4 (human)): 103% | residual activity (EPHA7 (human)): 46.1% | residual activity (TXK (human)): 83.3% | residual activity (FGFR1 (human)): 93.4%

O=C1NC(=O)c2cc(Nc3ccc(F)cc3)c(Nc3ccc(F)cc3)cc21
residual activity (RPS6KA1 KD1 KD2 (human)): 97.7% | residual activity (PRKACA (human)): 94.5% | residual activity (TAOK1 (human)): 90.3% | residual activity (PRKD1 (human)): 92.2% | residual activity (MAPK14 (human)): 88.3% | residual activity (NUAK1 (human)): 94% | residual activity (NEK11 (human)): 103% | residual activity (CDK5 CDK5R1 p35 (human)): 98.5% | residual activity (ZAP70 (human)): 78.8% | residual activity (TSSK1B (human)): 90.2% | residual activity (CSNK2A2 (human)): 104% | residual activity (FLT1 (human)): 81.5% | residual activity (PAK7 (human)): 96.4% | residual activity (TNK2 (human)): 93.2% | residual activity (ABL2 (human)): 89.6% | residual activity (CAMKK1 (human)): 90.2% | residual activity (CDK1 CCNB1 (human)): 103% | residual activity (IGF1R (human)): 102% | residual activity (MAP4K2 (human)): 98.2% | residual activity (LIMK1 (human)): 95.9% | residual activity (RPS6KB1 (human)): 95.5% | residual activity (DYRK1A (human)): 95.6% | residual activity (STK10 (human)): 79.2% | residual activity (CLK4 (human)): 88.6% | residual activity (PASK (human)): 91.3% | residual activity (MARK3 (human)): 90.8% | residual activity (RAF1 (human)): 81.9% | residual activity (RPS6KA6 KD1 KD2 (human)): 97.4% | residual activity (EPHB1 (human)): 103% | residual activity (PKN1 (human)): 97.7% | residual activity (ABL1 (human)): 95.7% | residual activity (MAPK10 (human)): 97.3% | residual activity (LRRK2 (human)): 99.8% | residual activity (TAOK3 (human)): 89.9% | residual activity (INSR (human)): 98.3% | residual activity (NTRK2 (human)): 91.9% | residual activity (AKT2 (human)): 95.1% | residual activity (STK16 (human)): 85.8% | residual activity (FGFR4 (human)): 95.5% | residual activity (EPHA7 (human)): 84.6% | residual activity (TXK (human)): 84.1% | residual activity (FGFR1 (human)): 92.1%

O=C1NC(=O)c2c1c1c3ccccc3[nH]c1c1[nH]c3cc(Br)ccc3c21
residual activity (RPS6KA1 KD1 KD2 (human)): 58.4% | residual activity (PRKACA (human)): 103% | residual activity (TAOK1 (human)): 68.4% | residual activity (PRKD1 (human)): 51.9% | residual activity (MAPK14 (human)): 90.6% | residual activity (NUAK1 (human)): 14.3% | residual activity (NEK11 (human)): 109% | residual activity (CDK5 CDK5R1 p35 (human)): 44.1% | residual activity (ZAP70 (human)): 104% | residual activity (TSSK1B (human)): 86.5% | residual activity (CSNK2A2 (human)): 93.2% | residual activity (FLT1 (human)): 56.5% | residual activity (PAK7 (human)): 96.7% | residual activity (TNK2 (human)): 97.4% | residual activity (ABL2 (human)): 93.8% | residual activity (CAMKK1 (human)): 99.1% | residual activity (CDK1 CCNB1 (human)): 47.8% | residual activity (IGF1R (human)): 15% | residual activity (MAP4K2 (human)): 74.1% | residual activity (LIMK1 (human)): 83.5% | residual activity (RPS6KB1 (human)): 45.2% | residual activity (DYRK1A (human)): 84% | residual activity (STK10 (human)): 84.6% | residual activity (CLK4 (human)): 49.5% | residual activity (PASK (human)): 86.3% | residual activity (MARK3 (human)): 57.3% | residual activity (RAF1 (human)): 97.8% | residual activity (RPS6KA6 KD1 KD2 (human)): 32.4% | residual activity (EPHB1 (human)): 95.5% | residual activity (PKN1 (human)): 66% | residual activity (ABL1 (human)): 83.3% | residual activity (MAPK10 (human)): 105% | residual activity (LRRK2 (human)): 49.8% | residual activity (TAOK3 (human)): 82.3% | residual activity (INSR (human)): 86.4% | residual activity (NTRK2 (human)): 68.1% | residual activity (AKT2 (human)): 86.9% | residual activity (STK16 (human)): 87.2% | residual activity (FGFR4 (human)): 90.6% | residual activity (EPHA7 (human)): 95.3% | residual activity (TXK (human)): 90.3% | residual activity (FGFR1 (human)): 85.3%

Cc1cc(Nc2nc(-c3ccccc3)nc3ccccc23)n[nH]1
residual activity (RPS6KA1 KD1 KD2 (human)): 58% | residual activity (PRKACA (human)): 97.2% | residual activity (TAOK1 (human)): 115% | residual activity (PRKD1 (human)): 77.4% | residual activity (MAPK14 (human)): 103% | residual activity (NUAK1 (human)): 3.88% | residual activity (NEK11 (human)): 105% | residual activity (CDK5 CDK5R1 p35 (human)): 77.1% | residual activity (ZAP70 (human)): 105% | residual activity (TSSK1B (human)): 76.7% | residual activity (CSNK2A2 (human)): 15% | residual activity (FLT1 (human)): 78.7% | residual activity (PAK7 (human)): 53.1% | residual activity (TNK2 (human)): 10.8% | residual activity (ABL2 (human)): 42.5% | residual activity (CAMKK1 (human)): 90.7% | residual activity (CDK1 CCNB1 (human)): 76% | residual activity (IGF1R (human)): 70.8% | residual activity (MAP4K2 (human)): 45.3% | residual activity (LIMK1 (human)): 59.6% | residual activity (RPS6KB1 (human)): 60.4% | residual activity (DYRK1A (human)): 104% | residual activity (STK10 (human)): 56.2% | residual activity (CLK4 (human)): 34.3% | residual activity (PASK (human)): 96.4% | residual activity (MARK3 (human)): 89% | residual activity (RAF1 (human)): 99.8% | residual activity (RPS6KA6 KD1 KD2 (human)): 56.3% | residual activity (EPHB1 (human)): 93.1% | residual activity (PKN1 (human)): 89.9% | residual activity (ABL1 (human)): 75.4% | residual activity (MAPK10 (human)): 88.7% | residual activity (LRRK2 (human)): 88.3% | residual activity (TAOK3 (human)): 86.9% | residual activity (INSR (human)): 31.6% | residual activity (NTRK2 (human)): 4.37% | residual activity (AKT2 (human)): 127% | residual activity (STK16 (human)): 24.7% | residual activity (FGFR4 (human)): 81.9% | residual activity (EPHA7 (human)): 72.5% | residual activity (TXK (human)): 45.3% | residual activity (FGFR1 (human)): 48.8%
